According to EPA's CvTdb concentration-time database:

Assays:
Mouse [1] = assay: concentration in plasma after dosing; conditions: 2 h; dosed: 2-Hydroxy-4-methoxybenzophenone; 50 mg/kg; iv; Female; B6C3F1
Mouse [2] = assay: concentration in plasma after dosing; conditions: 0.25 h; dosed: 2-Hydroxy-4-methoxybenzophenone; 500 mg/kg; oral; Female; B6C3F1
Mouse [3] = assay: concentration in plasma after dosing; conditions: 10 min; dosed: 2-Hydroxy-4-methoxybenzophenone; 500 mg/kg; oral; Male; B6C3F1
Mouse [4] = assay: concentration in plasma after dosing; conditions: 10 min; dosed: 2-Hydroxy-4-methoxybenzophenone; 500 mg/kg; oral; Female; B6C3F1
Rat [5] = assay: concentration in plasma after dosing; conditions: dosed: 2-Hydroxy-4-methoxybenzophenone, 8 mg/kg, iv, Female, F344
Rat [6] = assay: concentration in plasma after dosing; conditions: dosed: Nitrite, 20 mg/kg, iv, Male, F344
Rat [7] = assay: concentration in plasma after dosing; conditions: 2 min; dosed: Nitrite; 80 mg/kg; oral; Female; F344
Rat [8] = assay: concentration in plasma after dosing; conditions: dosed: Nitrite, 80 mg/kg, oral, Female, F344
Rat [9] = assay: concentration in brain after dosing; conditions: 12 h; dosed: Perfluorooctanoic acid; 12 mg/kg; oral; Male; Harlan Sprague Dawley
Rat [10] = assay: concentration in brain after dosing; conditions: 12 h; dosed: Perfluorooctanoic acid; 12 mg/kg; oral; Male; Harlan Sprague Dawley; remark: listed apart in the source
Rat [11] = assay: concentration in brain after dosing; conditions: 3 h; dosed: Perfluorooctanoic acid; 12 mg/kg; oral; Male; Harlan Sprague Dawley
Rat [12] = assay: concentration in brain after dosing; conditions: 6 h; dosed: Perfluorooctanoic acid; 12 mg/kg; oral; Male; Harlan Sprague Dawley
Rat [13] = assay: concentration in plasma after dosing; conditions: dosed: 678-39-7, 12 mg/kg, iv, Male, F344
Rat [14] = assay: concentration in plasma after dosing; conditions: dosed: Fluorotelomer alcohol 8+2, 12 mg/kg, oral, Male, Harlan Sprague Dawley
Rat [15] = assay: concentration in plasma after dosing; conditions: dosed: 678-39-7, 40 mg/kg, iv, Male, F344
Rat [16] = assay: concentration in kidney after dosing; conditions: 3 h; dosed: Fluorotelomer alcohol 8+2; 80 mg/kg; oral; Female; Harlan Sprague Dawley
Rat [17] = assay: concentration in plasma after dosing; conditions: dosed: 678-39-7, 12 mg/kg, iv, Male, F344; remark: listed apart in the source
Rat [18] = assay: concentration in plasma after dosing; conditions: dosed: Potassium Perfluorobutane Sulfonate, 4 mg/kg, oral, Male, Harlan Sprague Dawley
Rat [19] = assay: concentration in plasma after dosing; conditions: dosed: Potassium Perfluorobutane Sulfonate, 4 mg/kg, iv, Male, F344
Rat [20] = assay: concentration in kidney after dosing; conditions: 6 h; dosed: Potassium Perfluorobutane Sulfonate; 20 mg/kg; oral; Male; Harlan Sprague Dawley
Rat [21] = assay: concentration in plasma after dosing; conditions: dosed: Potassium Perfluorobutane Sulfonate, 4 mg/kg, oral, Male, Harlan Sprague Dawley; remark: listed apart in the source
Rat [22] = assay: concentration in plasma after dosing; conditions: 1.5 h; dosed: Potassium Perfluorobutane Sulfonate; 4 mg/kg; iv; Male; F344
Rat [23] = assay: concentration in plasma after dosing; conditions: dosed: Potassium Perfluorobutane Sulfonate, 4 mg/kg, iv, Male, F344; remark: listed apart in the source
rat [24] = assay: concentration in lung after dosing (ugEq/g tissue); conditions: dosed: benzo[a]pyrene, iv, male, Wistar

COc1ccc(C(=O)c2ccccc2)c(O)c1 [2-Hydroxy-4-methoxybenzophenone]
Conditions	concentration in plasma [ng/mL]
Mouse [1]	311
Mouse [2]	411
Mouse [3]	102
Mouse [4]	687

Rat [5]
Conditions	concentration in plasma [ng/mL]
0.25 h	1800
4 h	38.7

O=N[O-] [Nitrite]
concentration in plasma [ng/mL]
Conditions	0.5 h	1 h	4 h	5 min
Rat [6]	–	3100	–	12600
Rat [8]	5200	–	2300	–

Conditions	concentration in plasma [ng/mL]
Rat [7]	2900

O=C(O)C(F)(F)C(F)(F)C(F)(F)C(F)(F)C(F)(F)C(F)(F)C(F)(F)F [Perfluorooctanoic acid]
Conditions	concentration in brain [ng/g]	concentration in kidney [ng/g]
Rat [9]	1260	–
Rat [10]	1230	–
Rat [11]	913	–
Rat [12]	1290	–
Rat [16]	–	2070

Conditions	concentration in plasma [ng/mL]
Rat [13], 0.75 h	295
Rat [13], 12 h	505
Rat [14], 48 h	657
Rat [14], 192 h	424
Rat [15], 0.5 h	1400
Rat [15], 9 h	716
Rat [17], 0.5 h	210
Rat [17], 9 h	521

O=S(=O)([O-])C(F)(F)C(F)(F)C(F)(F)C(F)(F)F.[K+] [Potassium Perfluorobutane Sulfonate]
concentration in plasma [ng/mL]
Conditions	Rat [18]	Rat [19]	Rat [21]	Rat [23]
1 h	14800	–	–	–
3 h	–	10200	11700	305
5 min	–	29400	398	26400
24 h	603	–	–	–

Conditions	concentration in kidney [ng/g]	concentration in plasma [ng/mL]
Rat [20]	13100	–
Rat [22]	–	11400

c1ccc2c(c1)cc1ccc3cccc4ccc2c1c34 [benzo[a]pyrene]
concentration in lung, rat [24]
Conditions	2 mg/kg	6 mg/kg	15 mg/kg
0.5 h	1.06	16	25.8
0.75 h	2.68	5.85	13.7
1 h	2.4	2.76	17
1.5 h	1.07	5.3	38.5
2 h	14.7	5.84	37
3 h	0.34	0.4	7.07
4 h	0.04	2.64	22.4
5 h	0.68	12.4	33.2
5 min	5.17	33.9	46
6 h	0.06	6.27	22.6
8 h	9.32	5.09	18.4
10 min	1.31	13.6	26.1
20 min	2.8	17.3	23.4
24 h	–	–	10.2
32 h	–	3.9	15.7
